Values quoted from earlier work in patent publication US8232273B2, “Heterocyclic compounds and methods of use” (Genentech, Inc., priority 2008, dated 2012).

Legend:
[1] = test system: Bcl-2, Bcl-w and Bcl-xL; details: cited from earlier work
[2] = test system: Mcl-1 and A1; details: cited from earlier work
[3] = test system: xenograft models; details: animal studies, single agent; cited from earlier work

Row | SMILES | binding to Bcl-2, Bcl-w and Bcl-xL [1] | binding to Mcl-1 and A1 [2] | cytotoxic activity in certain xenograft models as single agents [3]
1 | CN(C)CC[C@H](CSc1ccccc1)Nc1ccc(S(=O)(=O)NC(=O)c2ccc(N3CCN(Cc4ccccc4-c4ccc(Cl)cc4)CC3)cc2)cc1[N+](=O)[O-] [ABT-737, N-(4-(4-((4′-chloro(1,1′-biphenyl)-2-yl)methyl)piperazin-1-yl)benzoyl)-4-(((1R)-3-(dimethylamino)-1-((phenylsulfanyl)methyl)propyl)amino)-3-nitrobenzenesulfonamide] | bind strongly | only weakly | demonstrated cytotoxic activity
2 | CC1(C)CCC(c2ccc(Cl)cc2)=C(CN2CCN(c3ccc(C(=O)NS(=O)(=O)c4ccc(N[C@H](CCN5CCOCC5)CSc5ccccc5)c(S(=O)(=O)C(F)(F)F)c4)cc3)CC2)C1 [ABT-263, N-(4-(4-((2-(4-chlorophenyl)-5,5-dimethyl-1-cyclohex-1-en-1-yl)methyl)piperazin-1-yl)benzoyl)-4-(((1R)-3-(morpholin-4-yl)-1-((phenylsulfanyl)methyl)propyl)amino)-3-((trifluoromethyl)sulfonyl)benzenesulfonamide] | bind strongly | only weakly | demonstrated cytotoxic activity
